This note sets out measurements from patent publication US8946247B2, “Quinazoline carboxamide azetidines” (Merck Patent GmbH, priority 2010, dated 2015).

One experiment addresses T1, Aurora B (Homo sapiens, UniProt Q96GD4).
T1 construct: GST-Aurora B (1-344 amino acids); GST (N); purchased Carna Biosciences 05-102
The experiment is described as follows: Aurora B Kinase Assay. To be noted: GST-Aurora B (1-344), 10 uM ATP, 90 min at 25 C. It is filed as biochemical. How it is done: To measure inhibitor activity of Aurora B inhibitors in the Caliper Life Sciences LC3000, a TTP Mosquito liquid handling instrument was used to place 0.25 ul of the appropriate concentration of inhibitor in 100% DMSO (for a dose response curve calculation) into each well of a 384-well plate. To this reaction components was added to a final volume of 25 ul: • 0.1 ng/ul GST-Aurora B (1-344 amino acids), (Carna Biosciences 05-102. N-terminal GST fusion with His tagged INCEP, accession number Q96GD4). • 10 uM ATP (Fluka, 02055) • 1 mM DTT (Sigma, D0632) • 1 mM MgCl2 (Sigma, M1028) • 1 uM substrate peptide (sequence FITC-LRRASLG-(CONH2), synthesized by Tufts Peptide Synthesis service. • 100 mM HEPES pH 7.5 (Calbiochem, 391338) • 0.015% Brij-35 (Sigma, B4184)
(§1) The reaction was incubated for 90 min at 25 C, and then stopped by the addition of 70 ul of Stop buffer (100 mM HEPES pH 7.5, 0.015% Brij-35, 10 mM EDTA (Sigma, E7889)).
The plate was read on a Caliper LC 3000 in an Off-Chip mobility shift assay format, using the following parameters for a 12-sipper chip: screening pressure −1.8 psi, upstream voltage −2700, downstream voltage −1000. These conditions caused unphosphorylated substrate and phosphorylated product peptide to resolve as separate peaks allowing direct measurement of percentage of conversion of substrate to product. The percent conversion was plotted against concentration of inhibitor to produce a sigmoidal dose response curve, from which an IC50 was calculated using XLFit for Microsoft Excel.

Another experiment has as its system pS6 MDA-MB-468. The experiment is described as follows: Cellular Activity Assay (phospho-S6 in MDA-MB-468 cells). It counts as cell-based. The note with it: Homo sapiens, 2 hr compound incubation, percent pS6-positive cells. How it is done:
MDA-MB-468 cells were grown in DMEM containing glutamine supplemented with 10% Fetal Bovine Serum (FBS) and 1× antibiotics. Cells were maintained by splitting 1:3 twice a week.
For the assay, cells were plated the evening before at a density of 4000 cells per well in black polyD lysine coated 384 well plates. Cells were incubated overnight (16 to 20 hours) in growth media. Compounds at an appropriate concentration were added to the wells and incubated for 2 hr. Controls included: i) no primary, ii) rabbit isotype, iii) propidium iodide (red) only and iv) anti-phospho-S6 antibody alone (green only). Cells were then fixed in 4% paraformaldehyde for 15-20 minutes at room temperature, then washed 3×80 ul with PBS.
50 ul 10% normal goat serum (NGS) with 0.2% triton X 100 in PBS were added and incubated for 30 to 60 minutes at room temperature. Anti-phospho-S6 antibody was diluted 1:800 2% with NGS in 0.2% TritonX-100 and 30 ul added to appropriate wells. The wells were incubated overnight at 4 degrees Celsius.
Then the wells were washed with 3×80 uL PBS. The secondary green fluorescence labeled antibody (Alexa Fluor® 488 F(ab′)2 fragment goat Anti-rabbit IgG (H+L)), was diluted 1:1500 in 2% NGS with 0.2% TritonX-100, and 30 ul were added to the appropriate wells which were then incubated in the dark at room temperature for 60 minutes. Then they were washed with 4×80 ul PBS. Propidium iodide (1.5 mM stock) was diluted 1:1000 in PBS, and 50 ul were added to the appropriate wells and incubated for 30 minutes at room temperature in the dark. Propidium iodide was not washed out. Plates were read on the Acumen Explorer.
Red and green cell populations were determined using controls. The number of green cells (pS6) and total number of cells (red) were then counted and the percentage of green cells was calculated. Percent positive cell data was plotted on a log scale against concentration of compounds and IC50 values were calculated from dose response curves.

In the next experiment the target is T2, Akt1 (Homo sapiens, UniProt P31749).
T2 construct: 0.1 ng/ul His-AKT (Full Length), (Invitrogen, Part #P2999, Lot #641228C); His; purchased Invitrogen P2999
The experiment in a line: AKT/PKB Kinase Assay. It is filed as biochemical. To be noted: His-AKT (Full Length), 160 uM ATP, 90 min at 25 C. How it is done:
In order to measure AKT inhibition in the Caliper Life Sciences LC3000, a TTP Mosquito liquid handling instrument was used to place 125 nl of the appropriate concentration of inhibitor in 100% DMSO (for a dose response curve calculation) into each well of a 384-well plate. To this reaction components were added to a final volume of 12.5 ul: • 0.1 ng/ul His-AKT (Full Length), (Invitrogen, Part #P2999, Lot #641228C) • 160 uM ATP (Fluke, 02055) • 1 mM DTT (Sigma, D0632) • 1 mM MgCl2 (Sigma, M1028) • 1 uM substrate peptide (sequence FITC-AHA-GRPRTSSFAEG-NH2), synthesized by Tufts Peptide Synthesis service. • 100 mM HEPES pH 7.5 (Calbiochem, 391338) • 0.015% Brij-35 (Sigma, B4184)
as §1
The plate was read on a Caliper LC 3000 in an Off-Chip mobility shift assay format, using the following parameters for a 12-sipper chip: screening pressure −2.3 psi, upstream voltage −500, and downstream voltage −3000.
These conditions cause unphosphorylated substrate and phosphorylated product peptide to resolve as separate peaks allowing direct measurement of percentage of conversion of substrate to product. The percent conversion was plotted against concentration of inhibitor to produce a sigmoidal dose response curve, from which an IC50 was calculated.

A further experiment deals with T3, P70S6K (T412E mutant) (Homo sapiens, UniProt P23443, T412E).
T3 construct: purchased Millipore
The experiment is described as follows: p70S6K Enzyme Assay. It is filed as biochemical. The note with it: 24 μM ATP, 90 min at 25° C., Caliper mobility shift. How it is done: p70S6K inhibitor compounds were diluted and plated in 96 well plates. A reaction mixture including the following components were then added to the compound plate to initiate the enzyme reaction; P70S6K (3 nM, T412E mutant, Millipore) was mixed with 24 μM ATP in an assay buffer containing 100 mM Hepes (pH 7.5), 5 mM MgCl2, 1 mM DTT, 0.015% Brij and 1 μM of the substrate peptide FITC-AHA-AKRRRLSSLRA-OH (derived from the S6 ribosomal protein sequence, FITC=fluorescein isothiocyanate, AHA=6-aminohexanoic acid). The reaction was incubated for 90 min at 25° C., before the addition of 10 mM EDTA to stop the reaction. The proportion of substrate and product (phosphorylated) peptide was analysed on a Caliper Life Sciences Lab Chip 3000, using a pressure of −1.4 psi, and upstream and downstream voltages of −3000 and −700 respectively. Product peaks were resolved before substrate peaks on the resulting chromatograms.
To assess the inhibitory potential of the compounds, IC50-values were determined, as shown in Chemical Synthesis section above.

T2 sequence (P31749 whole entry): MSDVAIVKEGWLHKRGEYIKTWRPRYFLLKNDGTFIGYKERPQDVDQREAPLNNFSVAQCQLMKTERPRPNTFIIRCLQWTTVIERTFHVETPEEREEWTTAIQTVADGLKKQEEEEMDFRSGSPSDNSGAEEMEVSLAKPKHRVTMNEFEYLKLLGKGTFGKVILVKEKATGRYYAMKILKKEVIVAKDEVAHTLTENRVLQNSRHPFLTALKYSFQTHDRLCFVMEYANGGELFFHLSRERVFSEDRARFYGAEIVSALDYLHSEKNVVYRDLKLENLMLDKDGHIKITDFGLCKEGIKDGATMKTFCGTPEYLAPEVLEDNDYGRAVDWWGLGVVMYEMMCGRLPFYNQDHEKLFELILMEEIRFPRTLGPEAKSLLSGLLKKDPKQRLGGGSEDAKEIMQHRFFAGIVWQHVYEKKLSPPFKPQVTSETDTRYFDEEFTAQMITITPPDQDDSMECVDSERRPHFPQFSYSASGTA
T3 sequence (P23443 1-421 T412E limits assumed): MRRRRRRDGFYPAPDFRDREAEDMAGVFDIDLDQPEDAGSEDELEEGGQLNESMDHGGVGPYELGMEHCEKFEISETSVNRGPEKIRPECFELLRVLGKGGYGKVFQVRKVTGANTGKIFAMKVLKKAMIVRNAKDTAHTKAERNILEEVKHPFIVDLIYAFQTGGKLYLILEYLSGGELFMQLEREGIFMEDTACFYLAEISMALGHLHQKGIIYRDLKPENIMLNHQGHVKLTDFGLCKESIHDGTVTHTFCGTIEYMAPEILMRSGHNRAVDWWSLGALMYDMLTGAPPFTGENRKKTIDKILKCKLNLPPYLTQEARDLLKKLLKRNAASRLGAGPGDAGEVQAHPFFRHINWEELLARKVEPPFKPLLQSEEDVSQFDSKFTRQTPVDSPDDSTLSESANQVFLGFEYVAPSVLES
T1 sequence (Q96GD4 whole entry, the tested form may be a part): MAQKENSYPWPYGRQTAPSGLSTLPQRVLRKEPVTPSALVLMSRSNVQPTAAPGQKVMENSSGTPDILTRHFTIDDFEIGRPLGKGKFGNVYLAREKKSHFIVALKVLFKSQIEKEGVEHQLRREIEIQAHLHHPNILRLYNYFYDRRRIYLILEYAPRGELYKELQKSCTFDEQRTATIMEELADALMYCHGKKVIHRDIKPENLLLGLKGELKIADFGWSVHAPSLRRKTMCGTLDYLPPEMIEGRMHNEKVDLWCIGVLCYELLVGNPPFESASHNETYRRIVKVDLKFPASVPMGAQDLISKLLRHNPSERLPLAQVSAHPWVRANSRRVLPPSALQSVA
T1 sequence (Q9NQS7 803-918 partner limits assumed): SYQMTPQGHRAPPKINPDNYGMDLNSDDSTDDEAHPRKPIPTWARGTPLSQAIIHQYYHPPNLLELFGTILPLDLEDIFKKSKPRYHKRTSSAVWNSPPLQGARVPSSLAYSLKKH

As for `NC(=O)c1cccc2c(N[C@H](CN3CCC3)c3ccc(Cl)c(C(F)(F)F)c3)ncnc12` [Example 5, 4-[(S)-2-Azetidin-1-yl-1-(4-chloro-3-trifluoromethylphenyl)-ethylamino]-quinazoline-8-carboxylic acid amide], the IC50 came out at 0.1 µM against Aurora B, 0.011 µM in the experiment with pS6 MDA-MB-468, 0.0014 µM at Akt1 and 0.0009 µM at P70S6K (T412E mutant).

Turning to `NC(=O)c1cccc2c(N[C@H](CN3CCC3)c3cc(F)cc(C(F)(F)F)c3)ncnc12` [Example 6, 4-[(S)-2-Azetidin-1-yl-1-(3-fluoro-5-trifluoromethylphenyl)-ethylamino]-quinazoline-8-carboxylic acid amide], the IC50 at Aurora B turned out to be 0.27 µM; in the experiment with pS6 MDA-MB-468, 0.098 µM; at Akt1, 0.0091 µM; on P70S6K (T412E mutant), 0.0023 µM.

For the compound `NC(=O)c1cccc2c(N[C@H](CN3CCC3)c3ccc(F)c(Cl)c3)ncnc12` [Example 7, 4-[(S)-2-Azetidin-1-yl-1-(3-chloro-4-fluorophenyl)-ethylamino]-quinazoline-8-carboxylic acid amide], the IC50 against Aurora B was 0.058 µM; in the experiment with pS6 MDA-MB-468, 0.0013 µM; at Akt1 it was 0.012 µM; on P70S6K (T412E mutant), 0.0013 µM.

Consider `NC(=O)c1cccc2c(N[C@H](CN3CCC3)c3ccc(Br)cc3)ncnc12` [Example 8, 4-[(S)-2-Azetidin-1-yl-1-(4-bromophenyl)-ethylamino]-quinazoline-8-carboxylic acid amide], for which the IC50 against Aurora B stood at 0.065 µM; with pS6 MDA-MB-468, 0.039 µM; on Akt1, 0.048 µM; on P70S6K (T412E mutant) it was 0.0016 µM.

For the compound `NC(=O)c1cccc2c(N[C@H](CN3CCC3)c3ccc(C(F)(F)F)cc3)ncnc12` [Example 9, 4-[(S)-2-Azetidin-1-yl-1-(4-trifluoromethylphenyl)-ethylamino]-quinazoline-8-carboxylic acid amide], the IC50 against Aurora B stood at 0.26 µM; in the experiment on pS6 MDA-MB-468, 0.01 µM; at Akt1 it was 0.017 µM; on P70S6K (T412E mutant), 0.0008 µM.

Consider `NC(=O)c1cccc2c(N[C@H](CN3CCC3)c3ccc(Cl)cc3)ncnc12` [Example 10, 4-[(S)-2-Azetidin-1-yl-1-(4-chlorophenyl)-ethylamino]-quinazoline-8-carboxylic acid amide], for which the IC50 against Aurora B was found to be 0.043 µM; in the experiment with pS6 MDA-MB-468, 0.036 µM; at Akt1, 0.021 µM; at P70S6K (T412E mutant), 0.001 µM.

For `N#Cc1cccc([C@@H](CN2CCC2)Nc2ncnc3c(C(N)=O)cccc23)c1` [Example 11, 4-[(S)-2-Azetidin-1-yl-1-(3-cyanophenyl)-ethylamino]-quinazoline-8-carboxylic acid amide], the IC50 was 0.69 µM against Aurora B, 0.382 µM in the experiment on pS6 MDA-MB-468, 0.27 µM at Akt1 and 0.0033 µM at P70S6K (T412E mutant).

On to `COc1cccc([C@@H](CN2CCC2)Nc2ncnc3c(C(N)=O)cccc23)c1` [Example 12, 4-[(S)-2-Azetidin-1-yl-1-(3-methoxyphenyl)-ethylamino]-quinazoline-8-carboxylic acid amide], for which the half-inhibitory concentration (IC50) against Aurora B was 0.067 µM; in the experiment on pS6 MDA-MB-468, 0.204 µM; on Akt1, 0.25 µM; at P70S6K (T412E mutant), 0.0044 µM.

With `NC(=O)c1cccc2c(N[C@H](CN3CCC3)c3cccc(Br)c3)ncnc12` [Example 13, 4-[(S)-2-Azetidin-1-yl-1-(3-bromophenyl)-ethylamino]-quinazoline-8-carboxylic acid amide], the IC50 was found to be 0.017 µM against Aurora B, 0.025 µM with pS6 MDA-MB-468, 0.005 µM at Akt1 and 0.0003 µM at P70S6K (T412E mutant).

Regarding `NC(=O)c1cccc2c(N[C@H](CN3CCC3)c3ccc(Cl)cc3F)ncnc12` [Example 14, 4-[(S)-2-Azetidin-1-yl-1-(2-fluoro-4-chlorophenyl)-ethylamino]-quinazoline-8-carboxylic acid amide], the IC50 on Aurora B came to 0.069 µM; with pS6 MDA-MB-468, 0.086 µM; against Akt1 it was 0.025 µM; at P70S6K (T412E mutant), 0.0011 µM.

Regarding `NC(=O)c1cccc2c(N[C@H](CN3CCC3)c3ccc(F)cc3F)ncnc12` [Example 15, 4-[(S)-2-Azetidin-1-yl-1-(2,4-difluorophenyl)-ethylamino]-quinazoline-8-carboxylic acid amide], the IC50 was 0.2 µM at Aurora B, 0.144 µM with pS6 MDA-MB-468, 0.084 µM against Akt1 and 0.006 µM at P70S6K (T412E mutant).

In the case of `NC(=O)c1cccc2c(N[C@H](CN3CCC3)c3c(F)cccc3F)ncnc12` [Example 16, 4-[(S)-2-Azetidin-1-yl-1-(2,6-difluorophenyl)-ethylamino]-quinazoline-8-carboxylic acid amide], the IC50 amounted to 0.17 µM on Aurora B, 0.183 µM in the experiment with pS6 MDA-MB-468, 0.091 µM against Akt1 and 0.0054 µM on P70S6K (T412E mutant).

Consider `NC(=O)c1cccc2c(N[C@H](CN3CCC3)c3ccc(C(F)(F)F)c(Cl)c3)ncnc12` [Example 17, 4-[(S)-2-Azetidin-1-yl-1-(3-chloro-4-trifluoromethylphenyl)-ethylamino]-quinazoline-8-carboxylic acid amide], for which the IC50 turned out to be 0.13 µM against Aurora B, 0.008 µM in the experiment with pS6 MDA-MB-468, 0.0037 µM on Akt1 and 0.0023 µM at P70S6K (T412E mutant).

`NC(=O)c1cccc2c(N[C@H](CN3CCC3)c3cc(F)c(F)cc3F)ncnc12` [Example 18, 4-[(S)-2-Azetidin-1-yl-1-(2,4,5-trifluorophenyl)-ethylamino]-quinazoline-8-carboxylic acid amide]: the IC50 against Aurora B was found to be 0.22 µM; in the experiment on pS6 MDA-MB-468, 0.085 µM; against Akt1, 0.036 µM; at P70S6K (T412E mutant), 0.0038 µM.
